The term IC50 denotes the point on the concentration scale where inhibition reaches its midpoint. Broadly, the GI50 is the concentration giving 50% growth inhibition. A high value points to lower sensitivity of the cells.

The target in assay [1] is HDAC1 enzyme (recombinant GST-HDAC1) (Homo sapiens (Human), UniProt Q13547). Kind of assay: In vitro HDAC assay for determination of IC50 values (BIOMOL fluorescent-based HDAC activity assay). Format: biochemical. Conditions: Flur de lys substrate, 2 h room temperature, read-out: IC50 (HDAC 1). Summed up:
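Recombinant human GST-HDAC1, baculovirus-expressed in SF9 cells and glutathione-purified, tested with a fluorogenic deacetylase substrate; Fluor de Lys developer added for 10 min. Fluorescence at 360 nm excitation/460 nm emission; IC50 fitted from a concentration series.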

For assay [2], the system named is Colo205 cells. Kind of assay: Cell-based proliferation assay for determination of GI50 values (CyQUANT). Conditions: Homo sapiens. Also on record: species or system human. In short, it runs like this:
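Colo205 cells in RPMI 1640 with 5% FBS, seeded 5000/well and grown 24 h at 37 °C. Exposure to compound lasted 96 h, with growth read by CyQUANT. GI50 = concentration giving 50% growth inhibition, from dose-response curves.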

For assay [3], the system named is acetylated histone H3 in Colo205 cells. Kind of assay: Histone acetylation assay (immuno-blotting with acetylated histone H3 antibody). Format: cell-based, human. To be noted: 10 μM, 24 h, western blot. As for the experimental part: Histone Acetylation Assay
A hallmark of histone deacetylase (HDAC) inhibition is the increase in the acetylation level of histones. Histone acetylation, including H3, H4 and H2A can be detected by immuno-blotting (western-blot). Colo205 cells, approximately 5×10^5 cells, were seeded in the previously described medium, cultivated for 24 h and subsequently treated with HDAC inhibitory agents and a positive control at 10 μM final concentration. After 24 h, cells were harvested and lysed according to the instruction from Sigma Mammalian Cell Lysis Kit. The protein concentration was quantified using BCA method (Sigma Pte Ltd). The protein lysate was separated using 4-12% bis-tris SDS-PAGE gel (Invitrogen Pte Ltd) and was transferred onto PVDF membrane (BioRad Pte Ltd). The membrane was probed using primary antibody specific for acetylated histone H3 (Upstate Pte Ltd). The detection antibody, goat anti rabbit antibody conjugated with HRP was used according to the manufacturing instruction (Pierce Pte Ltd). After removing the detection antibody from the membrane, an enhanced chemiluminescent substrate for detection of HRP (Pierce Pte Ltd) was added onto the membrane. After removing the substrate, the membrane was exposed to an X-ray film (Kodak) for 1 sec-20 mins. The X-ray film was developed using the X-ray film processor. The density of each band observed on the developed film could be qualitatively analysed using UVP Bioimaging software (UVP, Inc, Upland, Calif.). The values were then normalized against the density of actin in the corresponding samples to obtain the expression of the protein.
The results of immuno-blotting assay using acetylated histone H3 antibody are shown in Table 5 for representative compounds of this invention.
Background: Immunoblotting shows a protein as a band on a membrane.

Chain of HDAC1 enzyme (recombinant GST-HDAC1) (Q13547 whole entry): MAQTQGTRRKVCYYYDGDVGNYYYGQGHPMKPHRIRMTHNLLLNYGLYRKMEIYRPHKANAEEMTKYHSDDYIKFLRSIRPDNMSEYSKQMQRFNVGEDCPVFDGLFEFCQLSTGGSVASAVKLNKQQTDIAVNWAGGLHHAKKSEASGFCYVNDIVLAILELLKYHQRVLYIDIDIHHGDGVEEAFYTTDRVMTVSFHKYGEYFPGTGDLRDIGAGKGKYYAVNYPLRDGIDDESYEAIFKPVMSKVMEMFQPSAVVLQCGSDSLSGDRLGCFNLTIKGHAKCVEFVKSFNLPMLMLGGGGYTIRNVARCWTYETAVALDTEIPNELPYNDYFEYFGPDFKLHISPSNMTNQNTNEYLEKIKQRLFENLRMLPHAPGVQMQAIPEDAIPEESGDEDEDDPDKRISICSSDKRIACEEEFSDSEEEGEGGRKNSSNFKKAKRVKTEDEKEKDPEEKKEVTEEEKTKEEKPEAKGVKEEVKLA

Take `CCCCNCc1c(-c2ccccc2)nc2cc(/C=C/C(=O)NO)ccn12` [Compound 39, 3-(3-Butylaminomethyl-2-phenyl-imidazo[1,2-a]pyridin-7-yl)-N-hydroxy-acrylamide]: the IC50 in assay [1] was 0.16 µM. Moreover, the GI50 in assay [2] (COLO 205, 96 h treatment) is 0.44 µM. Moreover, the “Histone acetylation activities (Histone-3)” value in assay [3] is “active”.

Regarding `CCCN(C)Cc1c(-c2ccccc2)nc2cc(C=CC(=O)NO)ccn12` [Compound 40, N-Hydroxy-3-{3-[(methyl-propyl-amino)-methyl]-2-phenyl-imidazo[1,2-a]pyridin-7-yl}-acrylamide], the IC50 in assay [1] amounted to 0.24 µM. The compound also came in with a GI50 in assay [2] (COLO 205, 96 h treatment) of 0.79 µM. The “Histone acetylation activities (Histone-3)” value in assay [3] is given as “active”.

`CC(C)(C)NCc1c(-c2ccccc2)nc2cc(/C=C/C(=O)NO)ccn12` [Compound 45, 3-[3-(tert-Butylamino-methyl)-2-phenyl-imidazo[1,2-a]pyridin-7-yl]-N-hydroxy-acrylamide]: the IC50 in assay [1] was determined as 0.045 µM. In assay [2] (COLO 205, 96 h treatment), this compound returned a GI50 of 0.26 µM. Besides, the “Histone acetylation activities (Histone-3)” value in assay [3] is recorded as “active”.

Consider `CCCCNCc1c(C(C)(C)C)nc2cc(/C=C/C(=O)NO)ccn12` [Compound 49, 3-(2-tert-Butyl-3-butylaminomethyl-imidazo[1,2-a]pyridin-7-yl)-N-hydroxy-acrylamide], for which, in assay [1], the IC50 was 0.16 µM. In addition, the concentration for 50% growth inhibition (GI50) in assay [2] (COLO 205, 96 h treatment) was found to be 0.59 µM. For the same compound, the “Histone acetylation activities (Histone-3)” value in assay [3] is on record as “active”.

With `O=C(/C=C/c1ccn2c(CN3CCCC3)c(-c3ccccc3)nc2c1)NO` [Compound 60, N-Hydroxy-3-(2-phenyl-3-pyrrolidin-1-ylmethyl-imidazo[1,2-a]pyridin-7-yl)-acrylamide], the IC50 in assay [1] turned out to be 0.084 µM. The GI50 in assay [2] (COLO 205, 96 h treatment) came to 0.48 µM. Moreover, the “Histone acetylation activities (Histone-3)” value in assay [3] was “active”.

In the case of `CCCCNCc1c(-c2ccc(F)cc2)nc2cc(/C=C/C(=O)NO)ccn12` [Compound 63, 3-[3-Butylaminomethyl-2-(4-fluoro-phenyl)-imidazo[1,2-a]pyridin-7-yl]-N-hydroxy-acrylamide], in assay [1], the concentration for half-maximal inhibition (IC50) was 0.063 µM. In addition, in assay [2] (COLO 205, 96 h treatment), the GI50 is 0.54 µM. Moreover, the “Histone acetylation activities (Histone-3)” value in assay [3] is reported as “active”.

Turning to `CC(C)(C)NCc1c(-c2ccc(F)cc2)nc2cc(/C=C/C(=O)NO)ccn12` [Compound 64, 3-[3-(tert-Butylamino-methyl)-2-(4-fluoro-phenyl)-imidazo[1,2-a]pyridin-7-yl]-N-hydroxy-acrylamide], the IC50 in assay [1] turned out to be 0.051 µM. For the same compound, growth in assay [2] (COLO 205, 96 h treatment) was halved (GI50) at 0.27 µM. Besides, the “Histone acetylation activities (Histone-3)” value in assay [3] was “active”.

In the case of `CCN(CCC(C)(C)C)Cc1c(C)nc2cc(/C=C/C(=O)NO)ccn12` [Compound 125, 3-(3-{[(3,3-Dimethyl-butyl)-ethyl-amino]-methyl}-2-methyl-imidazo[1,2-a]pyridin-7-yl)-N-hydroxyacrylamide], the IC50 in assay [1] is 0.05 µM. Moreover, the GI50 in assay [2] (COLO 205, 96 h treatment) was 0.16 µM.

As to `CCCc1nc2cc(/C=C/C(=O)NO)ccn2c1CN(CC)CCC(C)C` [Compound 126, 3-(3-{[Ethyl-(3-methyl-butyl)-amino]-methyl}-2-propyl-imidazo[1,2-a]pyridin-7-yl)-N-hydroxy-acrylamide], the IC50 in assay [1] stood at 0.03 µM. In addition, in assay [2] (COLO 205, 96 h treatment), growth was halved (GI50) at 0.08 µM.

For the compound `CCCc1nc2cc(/C=C/C(=O)NO)ccn2c1CN(CC)CCC(C)(C)C` [Compound 127, 3-(3-{[(3,3-Dimethyl-butyl)-ethyl-amino]-methyl}-2-propyl-imidazo[1,2-a]pyridin-7-yl)-N-hydroxy-acrylamide], the IC50 in assay [1] turned out to be 0.02 µM. In addition, the GI50 in assay [2] (COLO 205, 96 h, 96 h treatment) turned out to be 0.07 µM.

On to `CCCCCc1nc2cc(/C=C/C(=O)NO)ccn2c1CNC(C)(C)C` [Compound 128, 3-[3-(tert-Butylamino-methyl)-2-pentyl-imidazo[1,2-a]pyridin-7-yl]-N-hydroxy-acrylamide], for which the IC50 in assay [1] is 0.02 µM. In assay [2] (COLO 205, 96 h treatment), this compound yielded a GI50 of 0.07 µM.

In the case of `CCCCCc1nc2cc(/C=C/C(=O)NO)ccn2c1CN(CC)CCCC` [Compound 129, 3-{3-[(Butyl-ethyl-amino)-methyl]-2-pentyl-imidazo[1,2-a]pyridin-7-yl}-N-hydroxy-acrylamide], in assay [1], the IC50 stood at 0.04 µM. Moreover, in assay [2] (COLO 205, 96 h, 96 h treatment), the GI50 stood at 0.15 µM.

For the compound `CCCCCc1nc2cc(/C=C/C(=O)NO)ccn2c1CN(CC)CCC(C)C` [Compound 130, 3-(3-{[Ethyl-(3-methyl-butyl)-amino]-methyl}-2-pentyl-imidazo[1,2-a]pyridin-7-yl)-N-hydroxy-acrylamide], in assay [1], the half-inhibitory concentration (IC50) worked out at 0.03 µM. This compound showed a GI50 in assay [2] (COLO 205, 96 h, 96 h treatment) of 0.14 µM.

For `CCCCCc1nc2cc(/C=C/C(=O)NO)ccn2c1CN(CC)CCC(C)(C)C` [Compound 131, 3-(3-{[(3,3-Dimethyl-butyl)-ethyl-amino]-methyl}-2-pentyl-imidazo[1,2a]pyridin-7-yl)-N-hydroxy-acrylamide], the IC50 in assay [1] was found to be 0.03 µM. This compound returned a GI50 in assay [2] (COLO 205, 96 h treatment) of 0.15 µM.

As for `CCCCN(CC)Cc1c(CCC)nc2cc(/C=C/C(=O)NO)ccn12` [Compound 132, 3-{3-[(Butyl-ethylamino)-methyl]-2-propyl-imidazo[1,2-a]pyridin-7-yl}-N-hydroxy-acrylamide], the IC50 in assay [1] is 0.04 µM. In assay [2] (COLO 205, 96 h treatment), growth was halved (GI50) at 0.16 µM.

Take `CC(C)Cc1nc2cc(/C=C/C(=O)NO)ccn2c1CNC(C)(C)C` [Compound 133, 3-[3-(tert-Butylamino-methyl)-2-isobutyl-imidazo[1,2-a]pyridin-7-yl]-N-hydroxy-acrylamide]: the IC50 in assay [1] turned out to be 0.05 µM. Besides, the GI50 in assay [2] (COLO 205, 96 h treatment) stood at 0.21 µM.

Take `CCCCN(CC)Cc1c(CC(C)C)nc2cc(/C=C/C(=O)NO)ccn12` [Compound 134, 3-{3-[(Butyl-ethyl-amino)-methyl]-2-isobutyl-imidazo[1,2-a]pyridin-7-yl}-N-hydroxy-acrylamide]: the IC50 in assay [1] amounted to 0.04 µM. For the same compound, halving of growth in assay [2] (COLO 205, 96 h, 96 h treatment) (GI50) required 0.15 µM.

With `CCc1nc2cc(/C=C/C(=O)NO)ccn2c1CNC(C)(C)C` [Compound 137, 3-[3-(tert-Butylamino-methyl)-2-ethyl-imidazo[1,2-a]pyridin-7-yl]-N-hydroxy-acrylamide], the IC50 in assay [1] was 0.03 µM. Moreover, growth in assay [2] (COLO 205, 96 h treatment) was halved (GI50) at 0.26 µM.

As to `CCCCN(CC)Cc1c(CC)nc2cc(/C=C/C(=O)NO)ccn12` [Compound 138, 3-{3-[(Butyl-ethyl-amino)-methyl]-2-ethyl-imidazo[1,2-a]pyridin-7-yl}-N-hydroxy-acrylamide], the IC50 in assay [1] came out at 0.05 µM. Further, halving of growth in assay [2] (COLO 205, 96 h treatment) (GI50) required 0.18 µM.

In the case of `CCc1nc2cc(/C=C/C(=O)NO)ccn2c1CN(CC)CCC(C)C` [Compound 139, 3-(2-Ethyl-3-{[ethyl-(3-methyl-butyl)-amino]-methyl}-imidazo[1,2-a]pyridin-7-yl)-N-hydroxy-acrylamide], the IC50 in assay [1] came to 0.02 µM. The compound further returned a GI50 in assay [2] (COLO 205, 96 h treatment) of 0.1 µM.

For the compound `CC(C)CCc1nc2cc(/C=C/C(=O)NO)ccn2c1CNC(C)(C)C` [Compound 140, 3-[3-(tert-Butylamino-methyl)-2-(3-methyl-butyl)-imidazo[1,2-a]pyridin-7-yl]-N-hydroxy-acrylamide], in assay [1], the IC50 worked out at 0.02 µM. For the same compound, growth in assay [2] (COLO 205, 96 h treatment) was halved (GI50) at 0.1 µM.

As to `CCCCN(CC)Cc1c(CCC(C)C)nc2cc(/C=C/C(=O)NO)ccn12` [Compound 141, 3-[3-[(Butyl-ethyl-amino)-methyl]-2-(3-methyl-butyl)-imidazo[1,2a]pyridin-7-yl]-N-hydroxy-acrylamide], the IC50 in assay [1] stood at 0.04 µM. The same compound yielded a 50% growth inhibitory concentration (GI50) in assay [2] (COLO 205, 96 h treatment) of 0.16 µM.

Regarding `CCN(CCC(C)(C)C)Cc1c(CCC(C)C)nc2cc(/C=C/C(=O)NO)ccn12` [Compound 143, 3-[3-{[(3,3-Dimethyl-butyl)-ethyl-amino]-methyl}-2-(3-methyl-butyl)-imidazo[1,2-a]pyridin-7-yl]-N-hydroxy-acrylamide], in assay [1], the IC50 was found to be 0.04 µM. The same compound came in with a GI50 in assay [2] (COLO 205, 96 h treatment) of 0.13 µM.

The record behind these values is patent US8648092B2, “Imidazo[1,2-a]pyridine derivatives: preparation and pharmaceutical applications” (MEI Pharma, priority 2005, dated 2014).
